Laboratory results published in PubChem BioAssay AID1053172 (The Scripps Research Institute Molecular Screening Center, 2014).
Calls of active or inactive are those of the source. No rule for the calls is given here.

Biological target: HIV-1 integrase / human LEDGF/p75 complex
Assay: inhibitors of HIV-1 IN-LEDGF/p75 DNA integration, dose response, biochemical, TR-FRET (AID 1053172)

Compound | IC50
C[n+]1c2cc(N)ccc2cc2ccc(N)cc21 | 5490 nM
O=C1Nc2ccccc2/C1=N\N=C\c1ccc(O)c(O)c1 | 696 nM
O=C(O)Cc1c[nH]c2cccc(O)c12 | 7410 nM
O=C(O)c1ccc(NC2=C/C(=N/S(=O)(=O)c3cccs3)c3ccccc3C2=O)cc1 | 996 nM
Cc1cnc(C=NNC(N)=S)c2cccc(N)c12 | inactive
COc1ccc(/C=C2\C(=O)NC(=O)c3ccccc32)cc1OC | 3940 nM
O=C1C(=Cc2ccco2)CCC1=Cc1ccco1 | 1920 nM
O=[N+]([O-])c1ccccc1NC(=S)N/N=C/c1ccc(O)c(O)c1 | 2510 nM
Cc1nc2ccccc2c(=O)n1/N=C/c1ccc(O)c(O)c1O | 2450 nM
O=C(O)CC(C(=O)O)N1C(=O)/C(=C/C=C/c2ccco2)SC1=S (centres undefined) | 377 nM
O=C(NN1C(=O)/C(=C/c2ccc(O)c(O)c2)SC1=S)c1ccccc1 | 1800 nM
COc1ccccc1OCC(=O)N/N=C/C=C/c1ccc([N+](=O)[O-])o1 | > 36500 nM (inactive)
Cc1sc2nc(SCC(=O)c3ccc(O)c(O)c3)n(C)c(=O)c2c1C | 3630 nM
C[C@@H]1O[C@@H](Oc2c(-c3ccc(O)c(O)c3)oc3cc(O)cc(O)c3c2=O)[C@H](O)[C@H](O)[C@H]1O | 2610 nM
O=C(O)c1cccc(-n2cccc2/C=C/[N+](=O)[O-])c1 | 8750 nM
CC1=NN(c2cccc(C(=O)O)c2)C(=O)/C1=C\C=C\c1ccco1 | 734 nM
CSc1nc(N(CCO)CCO)c2sc3nc(-c4ccco4)c4c(c3c2n1)CCC4 | 4850 nM
O=C(O)C(Cc1ccccc1)N1C(=O)/C(=C/C=C/c2ccco2)SC1=S (centres undefined) | 2740 nM
Cc1cccc(N=C2NC(=O)/C(=C/C=C/c3ccco3)S2)c1C | 2990 nM
O=c1[nH]c2cc3c(cc2cc1CN(Cc1cccnc1)Cc1nnnn1Cc1ccco1)OCCO3 | inactive
O=C(O)c1ccc2nc(-c3ccco3)c(-c3ccco3)nc2c1 | 1920 nM
N#Cc1c(NC(=O)CSc2ncnc3sccc23)oc(-c2ccco2)c1-c1ccco1 | inactive
CC(=O)Nc1ccc2c(COC(=O)CC3Sc4ccccc4NC3=O)cc(=O)oc2c1 (centres undefined) | > 12200 nM (inactive)
Cc1cc2nc3ccc(N(C)C)cc3nc2cc1N | > 36600 nM (inactive)
CN(C)c1ccc(O)c2c1CC1CC3[C@@H](N(C)C)C(=O)C(C(N)=O)=C(O)[C@]3(O)C(=O)C1=C2O (some centres undefined) | 3740 nM
C=CCn1c(SCC(=O)c2ccc(O)c(O)c2)nnc1-c1cccnc1 | 2380 nM

Compound | IC50
Cc1ccc(N=C2NC(=O)/C(=C/C=C/c3ccco3)S2)cc1 | 9140 nM
Cc1ccc(NC(=O)CN2C(=O)N/C(=C/c3ccco3)C2=O)cc1 | > 36500 nM (inactive)
O=C(CCN1CCN(c2ccccc2)CC1)N/N=C/c1ccc(O)c(O)c1O | 1020 nM
Nc1c(C(=O)NCC2CCCO2)sc2nc3c(c(-c4ccco4)c12)CC/C3=C\c1ccco1 (centres undefined) | 1350 nM
C=CCn1c(C)cc(C(=O)Cn2ncc(Cl)c(Cl)c2=O)c1C | inactive
COc1c(-c2ccc(O)c(O)c2)oc2cc(O)cc(O)c2c1=O | 1900 nM
O=c1cc(-c2ccc(O)c(O)c2)oc2c(C3O[C@H](CO)[C@@H](O)[C@H](O)[C@H]3O)c(O)cc(O)c12 (some centres undefined) | 1260 nM
COc1ccc(/C=N/NC(=O)c2cc(O)c(O)c(O)c2)cc1Cn1cc([N+](=O)[O-])cn1 | 689 nM
CC(=O)c1ccc(NC(=O)CSc2nnc(-c3ccco3)c(-c3ccco3)n2)cc1 | 6380 nM
Cc1cc(-c2csc(N)n2)c(C)n1Cc1ccco1 | > 36600 nM (inactive)
COCCN(CCOC)Cc1c(O)ccc2c1O/C(=C\c1ccc(C)o1)C2=O | > 36500 nM (inactive)
Cc1cc(=O)n2[nH]c(-c3ccsc3-n3c(C)ccc3C)cc2n1 | inactive
C/C(=N/NC(=O)c1cc(O)c(O)c(O)c1)c1ccc([N+](=O)[O-])cc1 | 2120 nM
O=C1CCCC(O)=C1N=Nc1ccc(C(=O)O)cc1 | 2410 nM
COc1ccc(C(=O)CSc2nnc(-c3ccco3)c(-c3ccco3)n2)cc1 | 6450 nM
S=C(Nc1ccc(N2CCOCC2)cc1)Nc1ccc2nc(-c3ccco3)c(-c3ccco3)nc2c1 | > 36500 nM (inactive)
O=C1NC(=S)NC(=O)C1=Cc1cccn1-c1ccc(O)cc1 | 2210 nM
CC1(C)OC(=O)C(=Cc2ccc(-c3ccc(Cl)c(C(=O)O)c3)o2)C(=O)O1 | 7910 nM
Nc1ccc2nc3c(=O)[nH]c(=S)[nH]c3nc2c1 | 1360 nM
O=C(Nc1nc(-c2ccco2)c(-c2ccco2)s1)C1CC(=O)N(c2ccc3c(c2)OCCO3)C1 (centres undefined) | inactive
COc1ccc(NC(=S)Nc2ccc3nsnc3c2)cc1 | inactive
C=CC(=O)N1C/C(=C/c2ccc(F)cc2)C(=O)/C(=C\c2ccc(F)cc2)C1 | inactive
CCOc1cccc(N2C(=O)/C(=C/c3ccco3)C(=O)NC2=S)c1 | 1550 nM
Cc1ccc(N2C(=O)NC(=O)/C(=C/c3ccoc3)C2=O)cc1 | 2000 nM
O=c1cc(-c2ccc(O)cc2)oc2c(O)c(O)c(O)c(O)c12 | 341 nM
CN(C)c1ccc2nc3ccc(=O)cc-3sc2c1 | > 36500 nM (inactive)

Compound | IC50
Cc1ccc(-c2nn(-c3ccccc3)cc2/C=C2\SC(=S)N(CCCCCC(=O)O)C2=O)o1 | inactive
CC(C)(CS(=O)(=O)[O-])NC(=O)CC[N+](C)(C)CCO | 3060 nM
O=C(O)c1cc(O)c2c(c1)[C@H]([C@H]1c3cc(C(=O)O)cc(O)c3C(=O)c3c(O[C@@H]4O[C@H](CO)[C@@H](O)[C@H](O)[C@H]4O)cccc31)c1cccc(OC3O[C@H](CO)[C@@H](O)[C@H](O)[C@H]3O)c1C2=O (some centres undefined) | 1050 nM
CC(=O)c1ccc2c(c1)C1C=CCC1C(C(=O)O)N2 (centres undefined) | 575 nM
COc1ccc2[nH]c3c(C)c4cc[n+](C)cc4c(C)c3c2c1 | 5110 nM
Nc1ccc2cc3ccc(N)cc3nc2c1 | 4460 nM
COC(=O)c1ccc(C)c(NC(=O)CSc2sc3c(O)cc(=O)[nH]c3c2C#N)c1 | inactive
C/C(=N\NC(=O)c1cc(O)ccc1O)c1cccc(NC(=O)c2ccc(Cl)cc2)c1 | inactive
Cc1csc(NC(=O)CSc2sc3c(O)cc(=O)[nH]c3c2C#N)n1 | 9730 nM
O=C(CCc1ccc(S(=O)(=O)N2CCOCC2)cc1)N/N=C/c1ccc(O)c(O)c1O | inactive
O=c1cc2c(=O)oc3cc(O)c(O)oc3c2c(O)c1O | 244 nM
Nc1nc(-c2ccco2)c(-c2ccco2)s1 | > 36500 nM (inactive)
COc1c(O)cc2oc(-c3ccc(O)c(O)c3)cc(=O)c2c1O | 1840 nM
O=C(CCN1C(=O)/C(=C/c2ccco2)SC1=S)Nc1ccc(C(=O)O)c(O)c1 | inactive
Oc1ccc(NCc2ccccc2OCc2ccccc2)cc1 | > 36500 nM (inactive)
O=C(O)c1cccc2cccc(-c3c4ccc(=O)c(O)c-4oc4c(O)c(O)ccc34)c12 | 369 nM
O=C1NC(=Nc2ccccc2)S/C1=C\C=C\c1ccco1 | 4380 nM
O=c1cc(-c2ccc(O)c(O)c2)oc2cc(O)c(C3OC(CO)C(O)C(O)C3O)c(O)c12 (centres undefined) | 1550 nM
O=S(=O)(O)c1cc(O)c2cc(Nc3ccccc3)ccc2c1 | 2730 nM
CCCNC1=C(C)C(=O)C2=C(C1=O)C(COC(N)=O)[C@]1(OC)C3NC3CN21 (some centres undefined) | inactive
O=C(NN1C(=O)/C(=C/C=C/c2ccco2)SC1=S)c1ccncc1 | 1200 nM
COc1ccc(NC(=O)CSc2sc3c(O)cc(=O)[nH]c3c2C#N)c(OC)c1 | inactive
Cc1cc(C(=O)N/N=C/c2ccc(O)c([N+](=O)[O-])c2)c(C)n1-c1ccc(F)cc1 | inactive
NNc1cccc(C=Cc2ccccc2)cc1=O | > 36600 nM (inactive)
O=C(CCN1C(=O)/C(=C/c2ccco2)SC1=S)Nc1ccc(O)cc1C(=O)O | inactive
O=C(Cc1csc(N2CCOCC2)n1)N/N=C/c1ccc(O)c(O)c1O | 927 nM

Compound | IC50
COc1cc(/C=C/C=C2/CC/C(=C/C=C/c3ccc(O)c(OC)c3)C2=O)ccc1O | 4930 nM
O=C1OC(c2cccs2)=N/C1=C/c1ccc(-c2cccc(C(=O)O)c2)o1 | inactive
NC(=O)c1ccc(N=Cc2c(O)n(Cc3ccco3)c(=O)[nH]c2=O)cc1 | inactive
Cc1ccc(NC2=CC(=O)C(=O)c3ccccc32)cc1 | 8860 nM
O=C(NN1C(=O)/C(=C/C=C/c2ccco2)SC1=S)c1ccccc1O | 1850 nM
CN(C)[C@@H]1C(=O)C(C(N)=O)=C(O)[C@@]2(O)C(=O)C3=C(O)c4c(O)cccc4[C@@](C)(O)C3[C@H](O)C12 (some centres undefined) | inactive
CCOC(=O)c1cc2c(=Cc3ccc(N(C)C)cc3)c3ccccc3n2[n+]1C | inactive
NC1=NC(=O)/C(=C\c2ccco2)S1 | 3990 nM
COc1cc(/C=C(\C#N)C(=O)c2ccc(O)c(O)c2)cc(I)c1O | 752 nM
N#C/C(=C\c1ccc(O)c(O)c1)C(=O)c1ccc(O)c(O)c1 | 79.5 nM
C=C1c2cccc(O)c2C(O)=C2C(=O)[C@]3(O)C(O)=C(C(N)=O)C(=O)[C@@H](N(C)C)[C@@H]3[C@@H](O)[C@H]12 | 2720 nM
O=C1C=C(Nc2ccccc2O)c2ccccc2C1=O | 7390 nM
O=C(O)COc1ccc2c(c1)O/C(=C\c1ccco1)C2=O | 1610 nM
COc1ccc(/C=N\NC(=O)c2cc(O)c(O)c(O)c2)cc1CN1CCN(c2ccc(F)cc2)CC1 | > 36500 nM (inactive)
COc1ccc(/C=C/C(=O)N2CCCc3ccccc32)cc1 | > 36600 nM (inactive)
O=C1c2c(O)cc(O)cc2O[C@@]12c1c(cc(O)c3c1O[C@H](c1ccc(O)cc1)[C@@H](O)C3)O[C@@H]2c1ccc(O)cc1 | inactive
N#C/C(=C\c1cc(O)c(O)c(O)c1)C(N)=O | 9600 nM
O=C(N/N=C/c1cccnc1)c1cc(O)c(O)c(O)c1 | inactive
O=c1c(O)c(-c2ccc(O)c(O)c2)oc2cc(O)ccc12 | 378 nM
COc1cccc(-n2c(SCc3cc(=O)oc4cc(O)c(O)cc34)nc3ccccc3c2=O)c1 | 3810 nM
O=c1c(O)c(-c2ccc(O)c(O)c2)oc2cc(O)cc(O)c12 | 498 nM
O=C(O)c1ccc(-n2cccc2/C=C2/NC(=O)N(c3cccc(Cl)c3)C2=O)cc1 | 4250 nM
CN(CCC#N)C(=O)COC(=O)c1c2c(nc3ccccc13)/C(=C\c1ccco1)CC2 | 2560 nM
CN=c1scc(C)n1/N=C/c1ccc(O)c(O)c1O | 4740 nM
Oc1ccc(/C=N/N=C/c2ccc(O)c(O)c2)cc1O | 191 nM
O=C(N/N=C/c1cccc(F)c1)c1cc(-c2ccco2)nc2ccccc12 | 3850 nM
